In paper PMC5379102, “Sequence-selective encapsulation and protection of long peptides by a self-assembled Fe^II8L6 cubic cage” (Nature Communications, 2017):
“Also recorded” adds a separate entry of the source. Read-outs that look alike come from different tables or passages of the source. Blank lines part the entries; values can stand above or below the compound they belong to. Non-standard residues stand in square brackets, D forms with d. Residues, ends and D or L forms follow the SMILES beside them. No end group written: not given here. *: point of attachment. Dnp = O=[N+]([O-])c1ccc(*)c([N+](=O)[O-])c1; 2Abz = Nc1ccccc1C(=O)O

Experiments:
[1] = molecular target: cage 1 (Fe^II8L6 cubic cage with zinc porphyrin faces); test: Ultraviolet-visible titration of cage 1 with guest (host-guest binding)
Experimental: Ultraviolet–visible absorption spectroscopy measurements were performed using a Perkin Elmer Lambda 750 UV-Vis-NIR spectrophotometer fitted with a PTP-1 Peltier temperature controller accessory. Spectra were obtained in double beam mode using only the (front) analyte beam to record spectra, with air in the (rear) reference path. Samples were analysed using quartz cuvettes with optical path lengths of 1 mm. Unless otherwise specified, 417 nm was the wavelength selected to follow the binding of the guest.
A solution of 1 in CH3CN:H2O (1:1) (250 μl, 1.5 μM) or pure acetonitrile was transferred to a cuvette. Small aliquots of the guest's solution were titrated into the cuvette. The experiment was performed at room temperature. Each experiment was repeated three times (Supplementary Figs 31–46 and Supplementary Methods). Data obtained from the ultraviolet–visible titration were then fitted using nonlinear analysis with DynaFit programme (Biokin Software)[30] to the binding equation derived for either 1:1 model (porphyrin:guest with one imidazole group) or 2:1 model (porphyrin:guest with two imidazole groups), except in the case of G7. G7 contains two histidine amino acids in consecutive positions, therefore the distance between the imidazole rings of these two amino acids is too short to allow the interaction with two porphyrins at the same time. In this case, the binding model was 2:1 peptide:cage.
The dilution effect was corrected by multiplying the observe intensity for the dilution factor before the fitting. The error reported for each affinity value is the formal standard error calculated by DynaFit[30] as the square root of the diagonal elements of the variance–covariance matrix. This s.e. gives an idea of the precision of the fitted value.
The experimental data obtained using UV-Vis spectroscopy for each guest was fitted using
nonlinear analysis with DynaFit program (Biokin Software)2 to the binding equation derived
for 1:1 model porphyrin:imidazole group (non-cooperative model). […]

Solubility observations = assay type: physicochemical
Experimental: In a J-Young NMR tube porphyrin A (4 mg, 3.3 μmol, 6 equiv.; Supplementary Figs 1–4 and Supplementary Methods), iron(II) triflate (1.5 mg, 4.4 μmol, 8 equiv.) and 5,6,7,8-tetrahydronaphthalen-2-amine B (1.9 mg, 13 μmol, 24 equiv.) were suspended in [D7]DMF (400 μl) and [D3]MeCN (100 μl). The solution was deoxygenated by three freeze-pump-thaw cycles, the tube was sealed, and heated in the oil bath for 8 h at 70 °C. After this time, the solution was opened to air and cooled to room temperature. […] The suspension was centrifuged and the solvent above the solid was removed. The purple solid was washed twice with chloroform (3 ml) and partially dried under nitrogen. The solid was dissolved in acetonitrile (0.5 ml) after drying with nitrogen. 1 (Supplementary Figs 5–12) was not soluble in pure water, but it is soluble in a 1:1 acetonitrile:water mixture (1 mg ml^−1).

trypsin = test: Trypsinization experiments (peptide hydrolysis by trypsin, with or without 1); assay type: in vitro ADME
Experimental: (§1) Finally, we envisaged that the closed cubic architecture of 1 could protect its histidine-containing peptide guests from enzymatic degradation. For these experiments we used the protease trypsin, which cleaves exclusively on the C-terminal side of lysine and arginine residues. We initially examined G7 as a substrate. […] The incubation of a 20 μM solution of G8 with 0.3 equiv. of trypsin in a mixture of acetonitrile and phosphate buffer (pH=7.5) for 30 min led to the cleavage of G8 in 76% yield (Supplementary Fig. 49). When the same reaction was run in the presence of 0.6 equiv. of 1 (2:1 binding stoichiometry), the extent of cleavage was only 9% (Supplementary Fig. 50). The low degree of enzymatic degradation observed is consistent with the 9 μM dissociation constant of the adduct between 1 and G8, which implies the presence of a small amount of free peptide under the reaction conditions. Importantly, when the same experiment was carried out with a non-binding G9 in place of G8, with or without 1, quantitative G9 cleavage was observed (Supplementary Figs 52 and 53). In a further test, we treated a mixture of both peptides and 1 with trypsin, and incubated the mixture under identical conditions. In this case almost complete selectivity was observed.
(§2) Trypsinization reactions were followed by analytical RP-HPLC with an Agilent 1,100 series LC using an Eclipse XDB-C18 analytical column (3 × 150 mm, 3.5 μm). Standard conditions for analytical RP-HPLC consisted on a linear gradient from 0 to 10% of solvent B in 5 min, it then increased from 10 to 70% in 30 min at a flow rate of 1.0 ml min^−1 (A: water with 0.1% trifluoroacetic acid (TFA), B: acetonitrile with 0.1% TFA); 55 μl of solution was injected to the column each time. Compounds were detected by ultraviolet absorption and subsequently characterized by electrospray ionization (ESI) (Supplementary Figs 48–56).
(§3) The samples were prepared in 200 μl solution (40% CH3CN, 50% phosphate buffer and 10% H2O; phosphate buffer: 0.1 M, pH 7.5, 0.2 M NaCl). The concentration of the solution components were: peptides (G8 and G9) 20 μM, trypsin 6 μM and 1 12 μM. However, not all components were present in each sample, as noted in the main text. The reaction mixtures were stirred at room temperature for 30 min. It was observed that longer reaction times cause degradation of 1 due to the high concentration of NaCl in the phosphate buffer. After this time, H2O (200 μl) and acetic acid (8 μl) were added to quench the reaction. In the case of the control experiments with free Zn porphyrins, the concentration of the porphyrin was 72 μM.

[2] = test system: cage 1 (Fe^II8L6 cubic cage with zinc porphyrin faces); test: Host-guest chemistry studied by 1H NMR titration; assay type: binding; conditions: shifts of β-pyrrolic protons of 1
Excerpt: We used 1-methylimidazole (G1) as an initial probe, following its binding by ^1H NMR spectroscopy. Due to the large cavity, only slight upfield shifts of the signals of the β-pyrrolic protons of 1 were observed following the addition of G1. […] However, when a 1:1 mixture of water:acetonitrile was used, it was necessary to add 70 equivalents to achieve saturation (Supplementary Fig. 27). We infer the weaker interaction in the presence of water to be due to competing hydrogen bonding between water and imidazole.
A solution of 1 (0.5 ml) was prepared in a mixture of CD3CN:D2O (1:1) or in pure CD3CN and was transferred to a J-Young NMR tube. Aliquots of the guest were added in the same mixture of solvents. The NMR spectrum was recorded after each addition and the sample was mixed thoroughly before each measurement (Supplementary Figs 26–30).

[3] = Trypsinization experiments (peptide hydrolysis by trypsin, with or without 1); assay type: in vitro ADME; conditions: isolated enzyme trypsin; peptide 20 μM, trypsin 6 μM (0.3 equiv.), 40% CH3CN / 50% phosphate buffer (0.1 M, pH 7.5, 0.2 M NaCl) / 10% H2O, room temperature, 30 min, RP-HPLC UV; read-out: cleavage by trypsin, single peptide, no 1
Experimental: as §1, §2, §3

[4] = 1:1 acetonitrile:water, 20 °C, 1 at 1.5 μM, UV-Vis at 417 nm, non-cooperative 1:1 imidazole (or thiazole):porphyrin model, except G7 (2:1 peptide:1), DynaFit fit, ± formal standard error, repeated three times, read-out: Kd (μM) in CD3CN:H2O (1:1)
[5] = 1:1 acetonitrile:water, 20 °C, 1 at 1.5 μM, UV-Vis at 417 nm, non-cooperative 1:1 imidazole (or thiazole):porphyrin model, except G7 (2:1 peptide:1), DynaFit fit, ± formal standard error, repeated three times
[6] = peptide 20 μM, trypsin 6 μM, 1 12 μM, 40% CH3CN / 50% phosphate buffer (0.1 M, pH 7.5, 0.2 M NaCl) / 10% H2O, room temperature, 30 min, RP-HPLC UV

Kd [1, 4]: 1000 ± 200 µM
Compound: c1cscn1 [thiazole]

equivalents of guest that saturate the cage (UV-Vis) ([1]; 1:1 CH3CN:H2O, 20 °C, 1 at 1.5 µM (G7 3 µM)): two | Kd ([1]; 1:1 CH3CN:H2O, 20 °C, 1 at 1.5 µM (Supplementary Figure 43), 2:1 peptide:1 model, read-out: Kd, titration at 1.5 µM cage): 0.06 ± 0.05 µM | Kd [1, 4]: 0.08 ± 0.02 µM | solubility at neutral pH (Solubility observations; trypsinization conditions): low solubility
Compound: VFQFLGKIIHHVGNFVHGFSHVF [Guest G7, Clavanin A]

hydrolysis by trypsin in the presence of free Zn porphyrin (trypsin; free A or water-soluble Zn-tetrakis(4-sulfonatophenyl)porphyrin 72 μM, peptide 20 μM, trypsin 6 μM, pH 7.5, 30 min): unaffected | cleavage by trypsin, single peptide, no 1 (trypsin; peptide 20 μM, trypsin 6 μM (0.3 equiv.), 40% CH3CN / 50% phosphate buffer (0.1 M, pH 7.5, 0.2 M NaCl) / 10% H2O, room temperature, 30 min, RP-HPLC UV): quantitative | cleavage by trypsin, single peptide, in the presence of 0.6 equiv. of 1 (trypsin; [6]): quantitative
Compound: CC[C@H](C)[C@H](NC(=O)CNC(=O)c1ccccc1N)C(=O)N[C@H](C(=O)N[C@@H](CCCNC(=N)N)C(=O)N[C@@H](C)C(=O)N[C@@H](CCCCNc1ccc([N+](=O)[O-])cc1[N+](=O)[O-])C(=O)O)C(C)C [Guest G9, Abz-NH-G-I-V-R-A-K(Dnp)-OH] (H-[2Abz]GIVRAK(Dnp)-OH)
Kd (μM) in CD3CN:H2O (1:1) [1, 5]: no binding interaction; also recorded: not observed to interact

Compound: CC[C@H](C)[C@H](NC(=O)[C@@H](N)CCC(=O)O)C(=O)N[C@@H](CC(C)C)C(=O)N[C@@H](CC(=O)O)C(=O)N[C@H](C(=O)N1CCC[C@H]1C(=O)N[C@@H](CO)C(=O)N[C@H](C(=O)O)[C@@H](C)O)C(C)C [Guest G10, H2N-E-I-L-D-V-P-S-T-OH]
Kd (μM) in CD3CN:H2O (1:1) [1, 5]: no binding interaction; also recorded: not observed to interact

Kd [1, 4]: 900 ± 70 µM | Kd ([1]; pure acetonitrile, 20 °C, 1 at 1.5 μM, UV-Vis at 417 nm, non-cooperative 1:1 imidazole:porphyrin model, DynaFit fit, ± formal standard error, repeated three times, read-out: Kd (μM) in CD3CN): 30 ± 1 µM
Compound: Cn1ccnc1 [Guest G1, 1-methylimidazole]
equivalents of guest at saturation (1H NMR) ([2]; in 1:1 water:acetonitrile): 70 equivalents | equivalents of guest at saturation (1H NMR) ([2]; in acetonitrile): seven

solubility in water or acetonitrile (Solubility observations; in either water or acetonitrile): not observed to dissolve
Compound: tetrakis(formylpyridine)porphyrin A

Kd [1, 4]: 9 ± 2 µM | times lower affinity than G7 ([1]; in 1:1 acetonitrile:water): 100 | metabolised at 0.5 h [3]: 76% | yield of cleavage by trypsin, mixture of G8 and G9, 0.6 equiv of 1 (trypsin; both peptides 20 μM, trypsin 6 μM, 1 12 μM, 40% CH3CN / phosphate buffer pH 7.5, room temperature, 30 min, RP-HPLC UV): 11% | cleavage by trypsin, single peptide, in the presence of 0.6 equiv. of 1 (trypsin; [6]): 9%
Compound: H-SSWGHVGKYVHGWSHVS-OH [Guest G8]
